According to ChEMBL document CHEMBL1136502, “Novel mechanism of inhibiting beta-lactamases by sulfonylation using beta-sultams” (Bioorg Med Chem Lett, 2003):

Tests used:
[1] = target: Beta-lactamase (Enterobacter cloacae, UniProt P05364); assay: Inhibitor activity against Beta-lactamase, derived from the Gram negative bacteria Enterobacter cloacae at pH 7
[2] = pKa value was determined; type: physicochemical

Beta-lactamase, sequence (P05364 whole entry): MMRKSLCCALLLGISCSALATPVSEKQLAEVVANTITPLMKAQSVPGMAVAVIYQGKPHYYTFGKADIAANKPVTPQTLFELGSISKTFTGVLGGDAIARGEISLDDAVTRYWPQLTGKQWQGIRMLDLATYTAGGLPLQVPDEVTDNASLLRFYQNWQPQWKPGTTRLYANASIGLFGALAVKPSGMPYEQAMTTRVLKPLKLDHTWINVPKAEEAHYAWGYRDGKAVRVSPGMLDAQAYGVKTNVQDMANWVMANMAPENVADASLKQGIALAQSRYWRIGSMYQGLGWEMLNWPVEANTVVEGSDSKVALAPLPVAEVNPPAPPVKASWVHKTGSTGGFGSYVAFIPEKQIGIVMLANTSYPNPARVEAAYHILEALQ

SMILES	kinact/Ki [1]	pKa [2]
CC(C)C1CN(C(=O)c2ccccc2)S1(=O)=O (stereo not drawn)	0.07 M⁻¹ s⁻¹	
O=C(c1ccccc1)N1CCS1(=O)=O	163 M⁻¹ s⁻¹	6.3
